In ChEMBL document CHEMBL4715697, “Synthesis and biological activity of benzamide DNA minor groove binders” (2016):

Key:
Type in all cases: functional
BT-549 [1] = test: Growth inhibition of human BT-549 cells incubated for 48 hrs by sulforhodamine B assay
A498 [2] = test: Growth inhibition of human A498 cells assessed as cell growth at 1 uM incubated for 48 hrs by sulforhodamine B assay relative to control; settings: read-out: Activity
IGROV-1 [3] = test: Growth inhibition of human IGROV-1 cells assessed as cell growth at 0.1 uM incubated for 48 hrs by sulforhodamine B assay relative to control; settings: read-out: Activity
SW-620 [4] = test: Growth inhibition of human SW-620 cells assessed as cell growth at 0.1 uM incubated for 48 hrs by sulforhodamine B assay relative to control; settings: read-out: Activity
U-251 = test: Growth inhibition of human U-251 cells assessed as cell growth at 0.01 uM incubated for 48 hrs by sulforhodamine B assay relative to control; settings: read-out: Activity
UO-31 = test: Growth inhibition of human UO-31 cells assessed as cell growth at 1 uM incubated for 48 hrs by sulforhodamine B assay relative to control; settings: read-out: Activity
NCI-H322M = test: Growth inhibition of human NCI-H322M cells assessed as cell growth at 0.1 uM incubated for 48 hrs by sulforhodamine B assay relative to control; settings: read-out: Activity
NCI-H226 [5] = test: Growth inhibition of human NCI-H226 cells assessed as cell growth at 0.01 uM incubated for 48 hrs by sulforhodamine B assay relative to control; settings: read-out: Activity
TK-10 [6] = test: Growth inhibition of human TK-10 cells assessed as cell growth at 100 uM incubated for 48 hrs by sulforhodamine B assay relative to control; settings: read-out: Activity
HOP-62 = test: Growth inhibition of human HOP-62 cells assessed as cell growth at 0.1 uM incubated for 48 hrs by sulforhodamine B assay relative to control; settings: read-out: Activity
HL-60(TB) [7] = test: Growth inhibition of human HL-60(TB) cells incubated for 48 hrs by sulforhodamine B assay
RPMI-8226 = test: Growth inhibition of human RPMI-8226 cells assessed as cell growth at 0.01 uM incubated for 48 hrs by sulforhodamine B assay relative to control; settings: read-out: Activity
IGROV-1 [8] = test: Growth inhibition of human IGROV-1 cells assessed as cell growth at 100 uM incubated for 48 hrs by sulforhodamine B assay relative to control; settings: read-out: Activity
BT-549 [9] = test: Growth inhibition of human BT-549 cells assessed as cell growth at 0.1 uM incubated for 48 hrs by sulforhodamine B assay relative to control; settings: read-out: Activity
SK-MEL-5 = test: Growth inhibition of human SK-MEL-5 cells assessed as cell growth at 0.1 uM incubated for 48 hrs by sulforhodamine B assay relative to control; settings: read-out: Activity
NCI-H522 = test: Growth inhibition of human NCI-H522 cells incubated for 48 hrs by sulforhodamine B assay
786-0 = test: Growth inhibition of human 786-0 cells assessed as cell growth at 0.1 uM incubated for 48 hrs by sulforhodamine B assay relative to control; settings: read-out: Activity
SW-620 [10] = test: Growth inhibition of human SW-620 cells assessed as cell growth at 100 uM incubated for 48 hrs by sulforhodamine B assay relative to control; settings: read-out: Activity
SK-OV-3 = test: Growth inhibition of human SK-OV-3 cells assessed as cell growth at 1 uM incubated for 48 hrs by sulforhodamine B assay relative to control; settings: read-out: Activity
HCC 2998 = test: Growth inhibition of human HCC 2998 cells assessed as cell growth at 1 uM incubated for 48 hrs by sulforhodamine B assay relative to control; settings: read-out: Activity
CCRF-CEM = test: Growth inhibition of human CCRF-CEM cells assessed as cell growth at 0.01 uM incubated for 48 hrs by sulforhodamine B assay relative to control; settings: read-out: Activity
A498 [11] = test: Growth inhibition of human A498 cells assessed as cell growth at 0.01 uM incubated for 48 hrs by sulforhodamine B assay relative to control; settings: read-out: Activity
SR = test: Growth inhibition of human SR cells assessed as cell growth at 0.1 uM incubated for 48 hrs by sulforhodamine B assay relative to control; settings: read-out: Activity
MDA-MB-231 = test: Growth inhibition of human MDA-MB-231 cells incubated for 48 hrs by sulforhodamine B assay
OVCAR-4 [12] = test: Growth inhibition of human OVCAR-4 cells incubated for 48 hrs by sulforhodamine B assay
SF-539 = test: Growth inhibition of human SF-539 cells assessed as cell growth at 1 uM incubated for 48 hrs by sulforhodamine B assay relative to control; settings: read-out: Activity
MCF7 = test: Growth inhibition of human MCF7 cells incubated for 48 hrs by sulforhodamine B assay
HL-60(TB) [13] = test: Growth inhibition of human HL-60(TB) cells assessed as cell growth at 0.1 uM incubated for 48 hrs by sulforhodamine B assay relative to control; settings: read-out: Activity
UACC-62 = test: Growth inhibition of human UACC-62 cells incubated for 48 hrs by sulforhodamine B assay
KM12 = test: Growth inhibition of human KM12 cells assessed as cell growth at 0.01 uM incubated for 48 hrs by sulforhodamine B assay relative to control; settings: read-out: Activity
HCT-116 = test: Growth inhibition of human HCT-116 cells assessed as cell growth at 0.01 uM incubated for 48 hrs by sulforhodamine B assay relative to control; settings: read-out: Activity
TK-10 [14] = test: Growth inhibition of human TK-10 cells assessed as cell growth at 0.1 uM incubated for 48 hrs by sulforhodamine B assay relative to control; settings: read-out: Activity
A549 = test: Growth inhibition of human A549/ATCC cells assessed as cell growth at 0.01 uM incubated for 48 hrs by sulforhodamine B assay relative to control; settings: read-out: Activity
OVCAR-4 [15] = test: Growth inhibition of human OVCAR-4 cells assessed as cell growth at 0.01 uM incubated for 48 hrs by sulforhodamine B assay relative to control; settings: read-out: Activity
NCI-H226 [16] = test: Growth inhibition of human NCI-H226 cells assessed as cell growth at 1 uM incubated for 48 hrs by sulforhodamine B assay relative to control; settings: read-out: Activity
[17] = read-out: LC50 (the source's name)
[18] = read-out: pLC50 (the source's name) (converted)

CC(=O)Nc1cc(CO[Si](C)(C)C(C)(C)C)cc(NC(=O)c2ccc(C(=O)Nc3cccc(NC(=O)CCCN(C)C)c3)cc2)c1
GI50 (BT-549 [1]; read-out: GI50): > 75 µM | CC50 (BT-549 [1]; [17]): > 75 µM | TGI (BT-549 [1]; read-out: TGI): > 75 µM | GI50 (BT-549 [1]; read-out: pGI50 (converted)): > 75.9 µM | CC50 (BT-549 [1]; [18]): > 75.9 µM | TGI (BT-549 [1]; read-out: pTGI): > 75.9 µM | growth at 1 µM (A498 [2]): 48% | growth at 0.1 µM (IGROV-1 [3]): 103% | growth at 0.1 µM (SW-620 [4]): 100% | growth at 0.01 µM (U-251): 101% | growth at 1 µM (UO-31): 105% | growth at 0.1 µM (NCI-H322M): 95% | growth at 0.01 µM (NCI-H226 [5]): 96% | growth at 100 µM (TK-10 [6]): 98% | growth at 0.1 µM (HOP-62): 98% | GI50 (HL-60(TB) [7]; read-out: GI50): > 75 µM | LC50 (HL-60(TB) [7]; read-out: LC50): > 75 µM | TGI (HL-60(TB) [7]; read-out: TGI): > 75 µM | GI50 (HL-60(TB) [7]; read-out: pGI50 (converted)): > 75.9 µM | LC50 (HL-60(TB) [7]; read-out: pLC50 (converted)): > 75.9 µM | TGI (HL-60(TB) [7]; read-out: pTGI): > 75.9 µM | growth at 0.01 µM (RPMI-8226): 95% | growth at 100 µM (IGROV-1 [8]): 75% | growth at 0.1 µM (BT-549 [9]): 93% | growth at 0.1 µM (SK-MEL-5): 97% | GI50 (NCI-H522; read-out: GI50): > 75 µM | CC50 (NCI-H522; [17]): > 75 µM | TGI (NCI-H522; read-out: TGI): > 75 µM | GI50 (NCI-H522; read-out: pGI50 (converted)): > 75.9 µM | CC50 (NCI-H522; [18]): > 75.9 µM | TGI (NCI-H522; read-out: pTGI): > 75.9 µM | growth at 0.1 µM (786-0): 93% | growth at 100 µM (SW-620 [10]): 100% | growth at 1 µM (SK-OV-3): 107% | growth at 1 µM (HCC 2998): 94% | growth at 0.01 µM (CCRF-CEM): 97% | growth at 0.01 µM (A498 [11]): 70% | growth at 0.1 µM (SR): 103% | GI50 (MDA-MB-231; read-out: GI50): > 75 µM | CC50 (MDA-MB-231; [17]): > 75 µM | TGI (MDA-MB-231; read-out: TGI): > 75 µM | GI50 (MDA-MB-231; read-out: pGI50 (converted)): > 75.9 µM | CC50 (MDA-MB-231; [18]): > 75.9 µM | TGI (MDA-MB-231; read-out: pTGI): > 75.9 µM | GI50 (OVCAR-4 [12]; read-out: GI50): > 75 µM | LC50 (concentration killing 50% of cells) (OVCAR-4 [12]; read-out: LC50): > 75 µM | TGI (OVCAR-4 [12]; read-out: TGI): > 75 µM | GI50 (OVCAR-4 [12]; read-out: pGI50 (converted)): > 75.9 µM | LC50 (concentration killing 50% of cells) (OVCAR-4 [12]; read-out: pLC50 (converted)): > 75.9 µM | TGI (OVCAR-4 [12]; read-out: pTGI): > 75.9 µM | growth at 1 µM (SF-539): 100% | GI50 (MCF7; read-out: GI50): 29.7 µM | CC50 (MCF7; [17]): > 75 µM | TGI (MCF7; read-out: TGI): > 75 µM | GI50 (MCF7; read-out: pGI50 (converted)): 29.5 µM | CC50 (MCF7; [18]): > 75.9 µM | TGI (MCF7; read-out: pTGI): > 75.9 µM | growth at 0.1 µM (HL-60(TB) [13]): 97% | GI50 (UACC-62; read-out: GI50): > 75 µM | CC50 (UACC-62; [17]): > 75 µM | TGI (UACC-62; read-out: TGI): > 75 µM | GI50 (UACC-62; read-out: pGI50 (converted)): > 75.9 µM | CC50 (UACC-62; [18]): > 75.9 µM | TGI (UACC-62; read-out: pTGI): > 75.9 µM | growth at 0.01 µM (KM12): 98% | growth at 0.01 µM (HCT-116): 104% | growth at 0.1 µM (TK-10 [14]): 99% | growth at 0.01 µM (A549): 99% | growth at 0.01 µM (OVCAR-4 [15]): 95% | growth at 1 µM (NCI-H226 [16]): 92%
